Assay results as given in patent US4837224A, “(R)-alpha-ethyl-2-oxo-1-pyrrolidineacetamide compositions” (UCB Societe Anonyme, priority 1984, dated 1989).

What was measured:
[1] = Toxicity: LD 50 after intravenous administration in the male rat; conditions: in vivo
Excerpt: (§1) The following table gives, for compounds A and B, the LD 50 in mg/kg determined on the male mouse and the male rat after intravenous administration

[2] = Toxicity: LD 50 after intravenous administration in the male mouse; assay type: in vivo; conditions: in vivo; male mouse, intravenous
Excerpt: as §1

male mouse = test: as above; assay type: in vivo
Excerpt: as §1

[3] = tested on: amnesia-inducing effect of an electric shock; test: Mnemic activity: antagonism of the amnesia-inducing effect of an electric shock; assay type: in vivo, rat (female Wistar); conditions: for minimal effective dose: sc, rat, subcutaneous, 5 minutes after the end of the learning session, retention measured 24 hours after the learning session, read-out: Active dose (minimum active dose reestablishing a normal threshold of between 8 to 11 graduations); for mnemic activity relative to the racemate: times more active than the racemate (compound A)
Excerpt: The principle of the test is as follows:
The reaction of withdrawal of a rat's paw when subjected to an increasing and measured pressure is observed. The pressure at which the withdrawal reaction takes place is referred to as the "reaction threshold". This threshold is expressed by the number of graduations read diectly from the scale of the apparatus used (analgesia-meter UGO BASILE Milan) and thus corresponds to the minimum pressure which, applied to the paw of the animals, causes the paw to be withdrawn (learning session). Three measurements are carried out at intervals of 30 minutes.
When tested 24 hours after the end of the learning session, control animal show a natural retention of the previous test, which corresponds to a threshold of the order of 8 to 11 graduations.
The amnesia-inducing effect is produced by applying a trans-temporal supramaximal electric shock (100 mA, 120 Volts, 0.2 sec.) to the rats 15 minute after the end of the learning session. This amnesia-inducing effect due to the electric shock induces, when measuring the retention 24 hours later, an increase of the avoidance threshold which now corresponds to that of naive animals (which have not undergone a learning session), that is to say a threshold of between 14 and 19 graduations.
For each compound to be tested the minimum active dose (in mg/kg) reestablishing a normal threshold of between 8 to 11 graduations 24 hours after the learning session in animals subjected to electric shock is determined.
The compounds to be tested are administered subcutaneously, as a 10% solution or suspension, to groups of 10 rats (female Wistar rats weighing 150 g) 5 minutes after the end of the learning session. At the same time, a control group of 10 rats is given only a 0.9% aqueous sodium chloride solution.

Row | Structure (SMILES) | LD50 [1] | LD50 [2] | toxicity relative to the racemate (male mouse; times lower toxicity than the racemic form, based on LD 50 in mouse and rat) | toxicity relative to the racemate (in words) (male mouse; versus racemate (product A), LD 50 mouse and rat, intravenous) | minimal effective dose [3] | mnemic activity relative to the racemate [3] | mnemic activity relative to the racemate ([3]; listed as dextrorotatory enantiomer of alpha-ethyl-2-oxo-1-pyrrolidineacetamide)
1 | CC[C@H](C(N)=O)N1CCCC1=O [compound B, (R)-alpha-ethyl-2-oxo-1-pyrrolidineacetamide] | 5000 mg/kg | 5600 mg/kg | 3 times | three times less toxic | 0.17 mg/kg | 10 times | about 10 times
2 | CCC(C(N)=O)N1CCCC1=O (racemic) [compound A, alpha-ethyl-2-oxo-1-pyrrolidineacetamide] | – | – | – | – | 1.7 mg/kg | – | –
